Experimental data as given in PubChem BioAssay AID328 (DTP/NCI, 2004).
Several values for one entry are separate records, joined by “and”; a condition that tells them apart may be missing. Identical values can stand only once. Toxic doses and inconclusive results are not listed. How the source made its calls: active means survival T/C of 150% or more; inactive means T/C below 125% in these data.

System: BDF1 mice, P388 leukemia ip, median survival T/C
Assay: NCI In Vivo Anticancer Drug Screen. Data for tumor model P388 Leukemia (intraperitoneal) in B6D2F1 (BDF1) mice
Settings: endpoint: median survival time, higher = longer survival
In short: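 Reported as T/C, where T is the survival measurement in dosed animals and C the same measurement in vehicle controls.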

[1] = dose: 100.0 mg/kg/injection, schedule: Q01DX009 (ip), vehicle: Klucel (hydroxypropylcellulose) (HPC)
[2] = dose: 200.0 mg/kg/injection, schedule: Q01DX009 (ip), vehicle: Klucel (hydroxypropylcellulose) (HPC)

Measured: T/C

Nc1c(O)nc[nH]c1=O
inactive: dose: 1.56 mg/kg/injection, schedule: Q01DX009 (ip), vehicle: saline 95 % of control | dose: 3.13 mg/kg/injection, schedule: Q01DX009 (ip), vehicle: saline 109 % of control and 100 % of control | dose: 3.13 mg/kg/injection, schedule: Q04DX003 (ip), vehicle: saline 95 % of control | dose: 6.25 mg/kg/injection, schedule: Q01DX009 (ip), vehicle: saline 100 % of control | dose: 6.25 mg/kg/injection, schedule: Q04DX003 (ip), vehicle: saline 86 % of control and 100 % of control | dose: 12.5 mg/kg/injection, schedule: Q01DX009 (ip), vehicle: saline 100 % of control | dose: 12.5 mg/kg/injection, schedule: Q04DX003 (ip), vehicle: saline 100 % of control

Brc1cnn2c1NCC2
inactive: dose: 12.5 mg/kg/injection, schedule: Q01DX009 (ip), vehicle: water 100 % of control | dose: 25.0 mg/kg/injection, schedule: Q01DX009 (ip), vehicle: water 93 % of control | dose: 25.0 mg/kg/injection, schedule: Q04DX003 (ip), vehicle: water 109 % of control and 114 % of control | dose: 50.0 mg/kg/injection, schedule: Q01DX009 (ip), vehicle: water 98 % of control | dose: 50.0 mg/kg/injection, schedule: Q04DX003 (ip), vehicle: water 95 % of control and 118 % of control | dose: 100.0 mg/kg/injection, schedule: Q01DX009 (ip), vehicle: water 97 % of control | dose: 100.0 mg/kg/injection, schedule: Q04DX003 (ip), vehicle: water 95 % of control and 114 % of control | dose: 200.0 mg/kg/injection, schedule: Q01DX009 (ip), vehicle: water 93 % of control | dose: 200.0 mg/kg/injection, schedule: Q04DX003 (ip), vehicle: water 93 % of control

O=C(N/N=C/c1ccc(Cl)cc1Cl)c1ccccc1
inactive: dose: 50.0 mg/kg/injection, schedule: Q01DX009 (ip), vehicle: Klucel (hydroxypropylcellulose) (HPC) 110 % of control | [1] 110 % of control | [2] 95 % of control

N=C(N=C(N)N)N1CCOCC1
inactive: dose: 50.0 mg/kg/injection, schedule: Q04DX003 (ip), vehicle: saline with Tween-80 110 % of control | dose: 100.0 mg/kg/injection, schedule: Q04DX003 (ip), vehicle: saline with Tween-80 115 % of control | dose: 200.0 mg/kg/injection, schedule: Q04DX003 (ip), vehicle: saline with Tween-80 105 % of control

C=CCOc1ccc([N+](=O)[O-])cc1[N+](=O)[O-]
inactive: dose: 100.0 mg/kg/injection, schedule: Q01DX001 (ip), vehicle: saline with Tween-80 100 % of control | dose: 200.0 mg/kg/injection, schedule: Q01DX001 (ip), vehicle: saline with Tween-80 105 % of control | dose: 400.0 mg/kg/injection, schedule: Q01DX001 (ip), vehicle: saline with Tween-80 100 % of control

CC(/C=C/c1ccccc1)=N\NC(=O)CN(C)C
inactive: dose: 50.0 mg/kg/injection, schedule: Q01DX009 (ip), vehicle: saline 94 % of control | dose: 100.0 mg/kg/injection, schedule: Q01DX009 (ip), vehicle: saline 97 % of control

CC(=O)Oc1ccc(N2C(=O)C=CC2=O)cc1
inactive: dose: 1.56 mg/kg/injection, schedule: Q04DX003 (ip), vehicle: Klucel (hydroxypropylcellulose) (HPC) 100 % of control | dose: 3.12 mg/kg/injection, schedule: Q01DX009 (ip), vehicle: Klucel (hydroxypropylcellulose) (HPC) 104 % of control | dose: 3.12 mg/kg/injection, schedule: Q04DX003 (ip), vehicle: Klucel (hydroxypropylcellulose) (HPC) 100 % of control | dose: 6.25 mg/kg/injection, schedule: Q01DX009 (ip), vehicle: Klucel (hydroxypropylcellulose) (HPC) 104 % of control | dose: 6.25 mg/kg/injection, schedule: Q04DX003 (ip), vehicle: Klucel (hydroxypropylcellulose) (HPC) 100 % of control | dose: 9.2 mg/kg/injection, schedule: Q04DX003 (ip), vehicle: Klucel (hydroxypropylcellulose) (HPC) 90 % of control | dose: 12.5 mg/kg/injection, schedule: Q01DX009 (ip), vehicle: Klucel (hydroxypropylcellulose) (HPC) 109 % of control | dose: 14.0 mg/kg/injection, schedule: Q04DX003 (ip), vehicle: Klucel (hydroxypropylcellulose) (HPC) 95 % of control

COC(=O)C/C(=C\c1ccc(OC)c(OC)c1)C(=O)OC
inactive: [1] 109 % of control | dose: 100.0 mg/kg/injection, schedule: Q04DX003 (ip), vehicle: Klucel (hydroxypropylcellulose) (HPC) 104 % of control | [2] 113 % of control | dose: 200.0 mg/kg/injection, schedule: Q04DX003 (ip), vehicle: Klucel (hydroxypropylcellulose) (HPC) 100 % of control | dose: 400.0 mg/kg/injection, schedule: Q01DX009 (ip), vehicle: Klucel (hydroxypropylcellulose) (HPC) 100 % of control | dose: 400.0 mg/kg/injection, schedule: Q04DX003 (ip), vehicle: Klucel (hydroxypropylcellulose) (HPC) 100 % of control

O=C1NC(=O)C(c2ccc(Cl)cc2)(c2ccccc2Cl)N1 (centres undefined)
inactive: dose: 100.0 mg/kg/injection, schedule: Q04DX003 (ip), vehicle: saline sonified 100 % of control | dose: 200.0 mg/kg/injection, schedule: Q04DX003 (ip), vehicle: saline sonified 95 % of control | dose: 400.0 mg/kg/injection, schedule: Q04DX003 (ip), vehicle: saline sonified 100 % of control
